{"source": "patent US11332483B2", "about": "“Naphthoquinone containing gold carbene complexes and methods of uses thereof” (BOARD OF REGENTS, THE UNIVERSITY OF TEXAS SYSTEM, priority 2017, dated 2022)", "key": {"A549 lung cancer cells": {"system": "A549 lung cancer cells", "assay": "ICP-MS detection of intracellular Au (cellular uptake)", "conditions": "A549 cells, in words", "description": "Roughly 7−8×10^6 cells were grown to 70-80% confluence in T-75 cell culture flasks (Thermo 130190) and treated with respective compound in RPMI medium supplemented with 10% FBS and antibiotics for the desired incubation time. The medium was then removed and cells were washed with 8 mL 1× warm PBS. 2 mL 1×PBS was then added to each flask, and the cells were removed by scraping. Each cell suspension was then pipetted into a clean, labeled 15 mL centrifuge tube (Thermo 339650). Cells were pelleted by centrifuging at 1,000 rpm for 5 min in an Eppendorf 5804 with a swing-bucket rotor. The supernatant was removed by vacuum aspiration, and the pellet was resuspended in 50 μL autoclaved deionized water. Suspension/lysates were then kept at −80° C. until further use. After thawing, the lysates were then sonicated using a Branson Digital Sonifier, and 5 μL aliquots were taken for determination of protein content of the sample. Lysates were digested with 80 μL aqua regia and heated to 65° C. for 1 h. Digested lysates were diluted with 4 mL 3% Trace Metal Grade HCl and gold content was measured on a Perkin Elmer NexION 300× set to detect gold at 197 m/z. Gold concentrations were quantified using the linear range of a standard curve generated by serial dilution of an ICP-MS gold standard (Ricca MSAU1KH-100) in 3% HCl. Values were then normalized to protein content as determined using a Modified Lowry Protein Assay Kit (Thermo 23240) and known concentrations of bovine serum albumin (Fisher 9048-46-8).\nThe Modified Lowry Assay was used to determine the protein content of each sample for normalization purposes. The standard curve for each run was made from a 2-fold serial dilution of fresh 5 mg/mL BSA solution. Aliquots were diluted to within the linear range of the standard curve using autoclaved DI water, and subjected to the Modified Lowry Assay in round-bottomed 96-well clear plates (Fisher 12565500). […] All other aspects of the procedure were as detailed in the microplate procedure instructions that come with the kit."}, "[1]": {"assay": "Electrochemical analysis (differential pulse voltammetry) in DMSO", "format": "physicochemical", "conditions": "0.1M [N(nBu)4][PF6], 0.1 mM analyte, vs SCE", "description": "[Cl] (Guth et al., 2011; Gómez et al., 2003).\n1,3-Dimesitylnapthoquinimidazolium chloride (Sanderson et al., 2006; Tennyson et al., 2010), (1,3-dimesityl-4,5-naphthoquino-imidazol-2-ylidene)-silver(I) chloride (Sanderson et al., 2006; Tennyson et al., 2010), (C4H2S)AuCl (Hashmi, et al., 2010) were prepared according to the literature procedures. All other reagents were purchased from commercial sources and used as received, including: [((CH3)3Si)2N]Na (NaHMDS) and silver(I) oxide. CD2Cl2 (99.9%) was purchased from Acros Laboratories in glass ampules and used as received. Solvents were either dried with a solvent purification system from the Inert Innovative Technology, Inc. (dichloromethane, diethyl ether, hexanes, tetrahydrofuran and toluene) or freshly distilled over 3 Å molecular sieves and degassed using three consecutive freeze-pump-thaw cycles prior to use. UV-vis spectra were obtained at ambient temperature with a Hewlett-Packard 8452A diode array spectrophotometer with molar absorptivities reported in M^−1 cm^−1. ^1H and ^13C NMR spectra were recorded on Bruker 300 MHz spectrometer. Spectra were referenced to the residual solvent as an internal standard, for ^1H NMR: CD2Cl2, 5.32 ppm and ^13C NMR: CD2Cl2, 53.84 ppm. High-resolution mass spectra (HRMS) were obtained with an Agilent Technologies 6530 Accurate Mass Q-TOF LC/MS (ESI) and are reported as m/z (relative intensity). Electroanalytical measurements were performed on a CHI620E electrochemical workstation using a silver wire quasi-reference electrode, a platinum disk working electrode and a Pt wire auxiliary electrode in a three-electrode cell under an atmosphere of nitrogen. […] All potentials listed herein were determined by differential pulse voltammetry and referenced to a saturated calomel electrode (SCE) by shifting ferrocene^0/+ to 0.435 V (DMSO) (Aranzaes et al., 2006). Spectroelectrochemistry measurements were obtained at ambient temperature with a custom designed three-electrode cell using Hewlett-Packard 8452A diode array spectrophotometer and CHI620E. Elemental analyses were performed by Midwest Microlab, LLC in Indianapolis, Ind. […] Trypsin (Hyclone SH30236.01) and Dulbecco's Phosphate Buffer Saline (Sigma R5886) were used for general cell maintenance and harvesting. Cell lines were obtained from the ATCC (A549 and PC-3) and Prof. Zahid Siddik at MD Anderson (A2780 and A2780CP). Thiazolyl blue tetrazolium bromide (Alfa Aesar L11939) was used for cell proliferation assays. Cell culture plastic ware consisted of generic T-75 flasks, 80.5 mm diameter culture dishes, and treated 96-well plates."}, "A549 cells": {"system": "A549 cells", "assay": "Detection of intracellular ROS by flow cytometry (CM-H2DCFDA)", "format": "cell-based, human", "conditions": "A549, 2.5 μM, 6 h incubation", "description": "To establish whether or not the complexes of this disclosure would increase intracellular ROS levels, A549 cells were treated with each complex in a dose responsive manner.\nTumor cells (1×10^6) were plated in a 6-well plate overnight and then incubated with media containing various complexes described at concentrations of 0.625-2.5 μM. Control cells were treated with vehicle only. After a 6 h. incubation, the cells were washed with PBS, detached with 0.250 mL 1× trypsin, collected in a 15 mL conical tube, and pelleted by centrifugation (3 min @ 300 g) at 5° C. The resulting pellet was again washed 2× with cold PBS and pelleted at 5° C. […] The cells were then pelleted, washed with 2 mL PBS, and re-suspended in PBS containing 2 μg/mL propidium iodide (PI, Chemodex P0023) for a final cell concentration of 0.5×10^6 cells/mL. Control samples of unstained cells, cells stained with only CM-H2DCFDA, and cells stained with only PI were also prepared. Each sample was added to one well of a 96-well plate. Samples were then subjected to FACS analysis using a Millipore Guava easyCyte 8 and analyzed using the Guava inCyte software."}, "zebrafish embryos/larvae": {"system": "zebrafish embryos/larvae", "description": "First, zebrafish embryos were divided into 7 groups at an average of 65 embryos per group. […] Briefly, live human lung cancer cells (A549) were labeled with CM-DiI (red) and only live cells were transplanted via injection into the perivitelline space of 30 zebrafish embryos 24 hours post fertilization (hpf) (Sittaramane et al., 2015; Veinotte et al., 2014; Xie et al., 2015). Tumor inoculated zebrafish embryos were allowed to grow for one day till 48 hpf. This allows for establishment of the cancer cells in the host zebrafish embryos.\nThe embryonic development of zebrafish embryos was monitored at 48 hpf and 72 hpf to record the number of dead embryos."}}}
{"smiles": "Cc1cc(C)c(-n2c3c([n+](-c4c(C)cc(C)cc4C)[c]2[Au-][c]2n(-c4c(C)cc(C)cc4C)c4c([n+]2-c2c(C)cc(C)cc2C)C(=O)c2ccccc2C4=O)C(=O)c2ccccc2C3=O)c(C)c1.[Cl][Ag-][Cl]", "note": "[Compound 1, [Bis(1,3-dimesityl-4,5-naphthoquino-imidazol-2-ylidene)-gold(I)] [Silver(I)dichloride]]", "values": [{"measurement": "intracellular Au levels (ICP-MS)", "setting": "A549 lung cancer cells", "value": "identical"}, {"measurement": "E1/2 (V) DPV, first reduction, formation of semiquinone radical", "setting": "[1]", "value": "−0.42", "unit": "V"}, {"measurement": "E1/2^b (V) DPV, second reduction, formation of quinone dianion", "setting": "[1]", "value": "−1.31", "unit": "V"}, {"measurement": "fluorescence associated cell population shift (intracellular ROS increase)", "setting": "A549 cells", "value": 27, "unit": "fold"}, {"measurement": "toxic effect relative to vehicle", "setting": "zebrafish embryos/larvae; 0.5 μM", "value": "no observable toxic effect"}, {"measurement": "lethality", "setting": "zebrafish embryos/larvae; concentrations above 1 μM", "value": 100, "unit": "%"}, {"measurement": "LD50", "setting": "zebrafish embryos/larvae; zebrafish embryos/larvae", "value": 0.75, "unit": "µM"}]}
